Test results published in the NIST ThermoML archive (doi:10.1016/j.jct.2013.05.047).
Values joined by “and” are separate entries in the source; they are usually repeats but may differ in a detail not shown here. Equal entries are not always repeated.

Tests used:
[1] = for vapor or sublimation pressure: Closed cell (Static) method; for Normal melting temperature: DTA
[2] = Molar enthalpy of transition or fusion; conditions: Crystal; DSC

Oc1ccc(Br)cc1 [4-bromophenol]
vapor or sublimation pressure, [1]
Conditions	Crystal	Liquid
285.34 K	0.00035 kPa	–
287.33 K	0.00046 kPa	–
289.29 K	0.00057 kPa	–
291.33 K	0.00073 kPa	–
293.31 K	0.00092 kPa	–
295.29 K	0.00116 kPa	–
297.25 K	0.00146 kPa	–
299.23 K	0.00182 kPa	–
301.2 K	0.00229 kPa	–
303.18 K	0.00286 kPa	–
303.2 K	–	0.00555 kPa
305.19 K	0.00358 kPa	–
305.2 K	–	0.00661 kPa
307.17 K	0.00441 kPa	–
307.18 K	–	0.00784 kPa
309.12 K	0.00541 kPa and 0.0054 kPa	–
309.17 K	–	0.00932 kPa
311.05 K	0.00664 kPa	–
311.16 K	–	0.01099 kPa
313.09 K	0.00818 kPa	–
313.12 K	–	0.01288 kPa
315.08 K	0.01002 kPa	–
315.09 K	–	0.01516 kPa
316.89 K	–	0.01755 kPa
317.09 K	0.01219 kPa	–
318.6 K	–	0.02013 kPa
319.01 K	0.01482 kPa	–
320.72 K	–	0.02383 kPa
320.99 K	0.01805 kPa	–
323.03 K	0.02185 kPa	0.02842 kPa
324.98 K	0.02644 kPa	–
325.02 K	–	0.03304 kPa
326.97 K	0.03198 kPa	0.03827 kPa
328.93 K	0.03838 kPa	–
328.95 K	–	0.04429 kPa
330.89 K	–	0.05121 kPa
330.93 K	0.0461 kPa	–
332.9 K	–	0.05904 kPa
334.9 K	–	0.06804 kPa
336.81 K	–	0.07806 kPa
338.78 K	–	0.0882 kPa
340.82 K	–	0.1022 kPa
342.8 K	–	0.1163 kPa
344.73 K	–	0.132 kPa
346.82 K	–	0.1517 kPa
348.66 K	–	0.1712 kPa
350.78 K	–	0.1945 kPa
352.64 K	–	0.2188 kPa
354.73 K	–	0.2475 kPa
356.58 K	–	0.2774 kPa
358.68 K	–	0.3129 kPa
360.5 K	–	0.3497 kPa
362.61 K	–	0.3938 kPa
364.5 K	–	0.4391 kPa
366.58 K	–	0.4925 kPa
368.3 K	–	0.549 kPa
370.51 K	–	0.6102 kPa

Conditions	Molar enthalpy of transition or fusion [kcal/mol]
[2]	4.04

Oc1ccc(F)cc1 [4-fluorophenol]
vapor or sublimation pressure [kPa], [1]
Conditions	Crystal	Liquid
265.62 K	0.00084	–
267.58 K	0.00108	–
269.54 K	0.00137	–
271.5 K	0.00174	–
273.49 K	0.00222	–
275.43 K	0.00279	–
277.43 K	0.00353	–
279.39 K	0.00443	–
281.38 K	0.00555	–
283.36 K	0.00696	–
285.33 K	0.00863	–
287.34 K	0.01071	–
289.29 K	0.01329	–
291.3 K	0.01648	–
291.39 K	–	0.02895
293.29 K	0.02028	–
293.35 K	–	0.03339
295.26 K	0.02476	–
295.34 K	–	0.0394
297.24 K	0.03044	–
297.32 K	–	0.04637
299.25 K	0.03741	0.05448
301.19 K	0.04503	–
301.24 K	–	0.06387
303.21 K	0.05518	–
303.22 K	–	0.07471
305.19 K	0.06658	–
305.24 K	–	0.08751
307.18 K	0.08105	–
307.21 K	–	0.1019
309.16 K	0.09599	–
309.2 K	–	0.1187
311.12 K	0.1152	–
311.17 K	–	0.1369
313.11 K	0.1383	–
313.15 K	–	0.1588
315.06 K	–	0.1811
315.1 K	0.1647	–
317.01 K	–	0.2084
317.07 K	0.197	–
319.02 K	–	0.2365
321.01 K	–	0.2738
323.1 K	–	0.3152
325.09 K	–	0.3611
327.06 K	–	0.4129
329.05 K	–	0.4644
331.02 K	–	0.5332
333.01 K	–	0.5995
335 K	–	0.6828
336.96 K	–	0.7646
338.93 K	–	0.8651
340.78 K	–	0.9558
342.84 K	–	1.084

Conditions	Normal melting temperature [°C]
[1], Crystal	47.2

Conditions	Molar enthalpy of transition or fusion [kcal/mol]
[2]	3.47

Oc1ccc(Cl)cc1 [4-chlorophenol]
vapor or sublimation pressure [kPa], [1]
Conditions	Crystal	Liquid
273.48 K	–	0.00084
273.5 K	0.00039	–
275.43 K	0.00049	–
275.44 K	–	0.00104
277.42 K	0.00063	0.00128
279.38 K	0.00081	0.00158
281.38 K	0.00103	0.00192
283.35 K	0.0013	–
283.37 K	–	0.00234
285.33 K	–	0.00286
285.35 K	0.00166	–
287.31 K	0.00208	–
287.32 K	–	0.00345
289.31 K	0.00262	0.00418
291.28 K	–	0.00507
291.31 K	0.00327	–
293.28 K	0.00406	0.00606
295.27 K	0.00505	–
295.32 K	–	0.00733
297.25 K	–	0.00872
297.26 K	0.00624	–
299.21 K	0.00766	–
299.23 K	–	0.01048
301.2 K	–	0.01241
301.23 K	0.00951	–
303.19 K	–	0.01472
303.2 K	0.01166	–
305.18 K	0.01436	0.01741
307.16 K	0.01755	–
307.18 K	–	0.02059
309.14 K	0.02132	0.02426
311.11 K	–	0.02854
311.14 K	0.02603	–
313.12 K	–	0.03332
315.06 K	–	0.03907
317.07 K	–	0.04539
319.03 K	–	0.05279
321.14 K	–	0.06178
323.09 K	–	0.07108
325.09 K	–	0.08208
327.04 K	–	0.09417
329.04 K	–	0.1088
331.02 K	–	0.1249

Conditions	Normal melting temperature [°C]
[1], Crystal	43.8

Conditions	Molar enthalpy of transition or fusion [kcal/mol]
[2]	3.35

Oc1ccc(I)cc1 [4-iodophenol]
vapor or sublimation pressure [kPa], [1]
Conditions	Crystal	Liquid
307.15 K	0.00064	–
309.13 K	0.00079	–
311.09 K	0.00098	–
313.1 K	0.00123	–
315.1 K	0.00152	–
317.05 K	0.00189	–
319.1 K	0.00236	–
321.01 K	0.00288	–
323.01 K	0.00353	–
325.06 K	0.00436	–
326.95 K	0.00527	–
329.02 K	0.00647	–
330.91 K	0.00781	–
332.98 K	0.00956	–
334.88 K	0.01147	–
336.93 K	–	0.02432
336.95 K	0.01399	–
338.83 K	0.01662	–
338.84 K	–	0.02795
340.71 K	–	0.03222
340.9 K	0.02012	–
342.72 K	–	0.03713
342.79 K	0.02397	–
344.73 K	–	0.04253
344.86 K	0.02883	–
346.71 K	0.03411	–
346.73 K	–	0.04894
348.71 K	–	0.05593
348.82 K	0.04092	–
350.67 K	0.0482	–
350.69 K	–	0.06373
352.67 K	–	0.07262
352.76 K	0.05731	–
354.59 K	0.06713	–
354.62 K	–	0.08281
356.58 K	–	0.09387
356.72 K	0.07984	–
358.58 K	0.09351	0.1065
360.56 K	–	0.1204
360.65 K	0.1108	–
362.52 K	–	0.1359
364.52 K	–	0.1533
366.46 K	–	0.1729
368.57 K	–	0.1961
370.44 K	–	0.2178
372.51 K	–	0.2463
374.38 K	–	0.2725
376.46 K	–	0.3075
378.32 K	–	0.3409
380.41 K	–	0.382

Conditions	Normal melting temperature [°C]
[1], Crystal	92.7

Conditions	Molar enthalpy of transition or fusion [kcal/mol]
[2]	4.97
